Some results are limits rather than exact numbers.

What is called IC50 is the concentration that gives 50% inhibition.

The target in one assay is T1, KRAS G12C (Homo sapiens, UniProt P01116, G12C).
T1 construct: HIS-KRAS (G12C, aa 2-185, Sino biological); purchased Sino biological
Nature of the assay: SOS1 catalyzed nucleotide exchange assay (TR-FRET). In kind it is biochemical. The note with it: GDP-loaded HIS-KRAS(G12C), 1 hour pre-incubation with compound. As to the method:
1. SOS1 Catalyzed Nucleotide Exchange Assay
HIS-KRAS (G12C, aa 2-185, Sino biological) was diluted to […] EDTA buffer (20 mM HEPES, pH 7.4, 50 mM NaCl, 10 mM EDA, 0.01% (v/v) Tween-20) and incubated for 30 min at 25° C. The EDTA pretreated HIS-KRAS(G12C) was diluted to 12 nM in assay buffer (25 mM HEPES, pH 7.4, 120 mM NaCl, 5 mM MgCl2, 1 mM DTI, 0.01% (v/v) Tween 20, 0.1% (w/v) BSA) containing 120 nM GDP(Sigma) and Mab Anti 6HIS-Tb cryptate Gold(Cisbio) and incubated for 1 hour at 25° C. to prepare GDP-loaded HIS-KRAS(G12C). The GDP-loaded HIS-KRAS(G12C) was pre-incubation with diluted compounds in a 384-well plate (Greiner) for 1 hour, then purified SOS 1ExD (Flag tag, aa 564-1049) and BODIPY™FL GTP (Invitrogen) were added to the assay wells (Final concentration: 3 nM HIS-KRAS(G12C), 2 μM SOS1 ExD, 80 nM BODIPY™FL GTP, 21 ng/mL MAb Anti 6HS-Tb cryptate Gold) and incubated for 4 hours at 25° C. TR-FRET signals were then read on Tecan Spark multimode microplate reader. The parameters were F486: Excitation 340 (35) nm, Emission 486 (10) nm, Lag time 100 μs, Integration time […]; F515: Excitation 340 (35) nm, Emission 515 (10) nm, Lag time […], Integration time 200 s. TR-FRET ratios for each individual wells were calculated by equation: TR-FRET ratio=(Signal F515/Signal F486)*10000. Then the data were analyzed using a 4-parameter logistic model to calculate IC50 values.
Background: In TR-FRET formats the signal depends on donor and acceptor labels being close together.

The subject of assay [1] is Phospho-ERK1/2(THR202/TYR204) in NCI-H358 cells express KRAS G12C. Nature of the assay: Phospho-ERK1/2(THR202/TYR204) HTRF assay. Particulars: Homo sapiens; NCI-H358, 2 hours incubation; read-out: p-ERK inhibition in NCI-H358 IC50. Format: cell-based. As for the experimental part:
NCI-H358 cells express KRAS G12C were cultured in RPMI 1640 medium (Gibco) containing 10% fetal bovine serum (Gibco). Cells in culture medium were plated in 96-well plates at a concentration of 40,000 cells/well and allowed to attach overnight. The next day, culture medium was removed and added compounds diluted in assay medium (RPMI 1640, 0.1% EFBS). After 2 hours incubation in a 37° C./5% CO2 cell incubator, the assay medium was removed, then 50 μL of 1× supplemented lysis buffer (Cisbio) was added and the plates were incubated at 25° C. for 45 min with shaking. 10 μL of cell lysates from the 96-well plates were transferred to a 384-well plate (Greiner) containing 2.5 µL/well HTRF® pre-mixed antibodies (Cisbio 64AERPEH).
Incubate 4 hours at 25° C. and then read HTRF signals on Tecan Spark multimode microplate reader. The data were analyzed using a 4-parameter logistic model to calculate IC50 values.

Assay [2] relates to NCI-H358 cells express KRAS G12C. The assay can be described thus: Cell growth inhibition assay (CCK-8). In kind it is cell-based. Particulars: Homo sapiens, 144 h; NCI-H358, 6 days incubation. As to the method: 3. Cell Growth inhibition assay
NCI-H358 cells express KRAS G12C were cultured in RPMI 1640 medium (Gibco) containing 10% fetal bovine serum (Gibco). Cells in culture medium were plated in 96-well plates at a concentration of 3000 cells/well ([…]) and allowed to attach overnight. The next day, compounds were diluted in culture medium and added to the plates. After 6 days incubation in a 37° C./5% CO2 cell incubator, the medium was removed, then 100 μL of 1×CCK-8 (MCE) in culture medium was added in each well. The plates were incubated 1.5-2 hours in a 37° C./5% CO2 cell incubator. OD450 signals were read on Tecan Spark multimode microplate reader and analyzed using a 4-parameter logistic model to calculate IC50 values.

T1 sequence (P01116 2-185 isoform P01116-2 G12C): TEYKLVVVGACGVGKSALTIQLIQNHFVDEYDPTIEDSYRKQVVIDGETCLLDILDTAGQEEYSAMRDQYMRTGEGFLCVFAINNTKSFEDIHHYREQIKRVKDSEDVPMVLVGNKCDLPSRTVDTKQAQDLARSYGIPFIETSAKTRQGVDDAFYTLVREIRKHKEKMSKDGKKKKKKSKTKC

Consider `C=CC(=O)N1CCN(c2nc(OCC3(CN(C)C)CC3)nc3c2CCN(c2c(N)cccc2F)C3)CC1CC#N` (stereo not drawn) [Compound 55, 2-(1-acryloyl-4-(7-(2-amino-6-fluorophenyl)-2-((1-((dimethylamino)methyl)cyclopropyl)methoxy)-5,6,7,8-tetrahydropyrido[3,4-d]pyrimidin-4-yl)piperazin-2-yl)acetonitrile], for which the IC50 at KRAS G12C is greater than 500 nM.
As for `C=CC(=O)N1CCN(c2nc(OC3CCC(N(C)C)C3)nc3c2CCN(c2cccc4ccccc24)C3)CC1CC#N` (stereo not drawn) [Compound 13, 2-(1-acryloyl-4-(2-((3-(dimethylamino)cyclopentyl)oxy)-7-(naphthalen-1-yl)-5,6,7,8-tetrahydropyrido[3,4-d]pyrimidin-4-yl)piperazin-2-yl)acetonitrile], the IC50 on KRAS G12C turned out to be 684 nM; in assay [1] it was 1210 nM.
In the case of `C=CC(=O)N1CCN(c2nc(OCC3(N(C)C)CCC3)nc3c2CCN(c2cccc4ccccc24)C3)CC1CC#N` (stereo not drawn) [Compound 9, 2-(1-acryloyl-4-(2-((1-(dimethylamino)cyclobutyl)methoxy)-7-(naphthalen-1-yl)-5,6,7,8-tetrahydropyrido[3,4-d]pyrimidin-4-yl)piperazin-2-yl)acetonitrile], the IC50 in assay [1] stood at 1150 nM; in assay [2], 888 nM.
Turning to `C=CC(=O)N1CCN(c2nc(OC3CCCC3N3CCN(C)CC3)nc3c2CCN(c2cccc4ccccc24)C3)CC1CC#N` (stereo not drawn) [Compound 16, 2-(1-acryloyl-4-(2-((2-(4-methylpiperazin-1-yl)cyclopentyl)oxy)-7-(naphthalen-1-yl)-5,6,7,8-tetrahydropyrido[3,4-d]pyrimidin-4-yl)piperazin-2-yl)acetonitrile], the IC50 in assay [1] worked out at 7060 nM.
With `C=C(F)C(=O)N1CCN(c2nc(OCC3(CN4CCC(F)(F)C4)CC3)nc3c2CCN(c2cccc4cccc(C)c24)C3)CC1CC#N` (stereo not drawn) [Compound 81, 2-(4-(2-((1-((3,3-difluoropyrrolidin-1-yl)methyl)cyclopropyl)methoxy)-7-(8-methylnaphthalen-1-yl)-5,6,7,8-tetrahydropyrido[3,4-d]pyrimidin-4-yl)-1-(2-fluoroacryloyl)piperazin-2-yl)acetonitrile], the IC50 on KRAS G12C was greater than 500 nM.
Turning to `C=CC(=O)N1CCN(c2nc(OCCC3CCCC3N(C)C)nc3c2CCN(c2cccc4ccccc24)C3)CC1CC#N` (stereo not drawn) [Compound 21, 2-(1-acryloyl-4-(2-(2-(2-(dimethylamino)cyclopentyl)ethoxy)-7-(naphthalen-1-yl)-5,6,7,8-tetrahydropyrido[3,4-d]pyrimidin-4-yl)piperazin-2-yl)acetonitrile], the IC50 in assay [1] was greater than 1000 nM.
For the molecule `C/C=C/C(=O)N1CCN(c2nc(OCC3(CN(C)C)CC3)nc3c2CCN(c2cccc(C)c2C)C3)CC1CC#N` (stereo not drawn) [Compound 82, (E)-2-(1-(but-2-enoyl)-4-(2-((1-((dimethylamino)methyl)cyclopropyl)methoxy)-7-(2,3-dimethylphenyl)-5,6,7,8-tetrahydropyrido[3,4-d]pyrimidin-4-yl)piperazin-2-yl)acetonitrile], the IC50 at KRAS G12C was 211 nM; in assay [1], greater than 500 nM.
For the molecule `C=C(F)C(=O)N1CCN(c2nc(OCC3(CN(C)C)CC3)nc3c2CCN(c2cccc(C)c2C)C3)CC1CC#N` (stereo not drawn) [Compound 80, 2-(4-(2-((1-((dimethylamino)methyl)cyclopropyl)methoxy)-7-(2,3-dimethylphenyl)-5,6,7,8-tetrahydropyrido[3,4-d]pyrimidin-4-yl)-1-(2-fluoroacryloyl)piperazin-2-yl)acetonitrile], the 50% inhibitory concentration (IC50) was 285 nM on KRAS G12C and greater than 500 nM in assay [1].
As to `C=CC(=O)N1CCN(c2nc(O[C@H]3CC[C@H](N(C)C)CC3)nc3c2CCN(c2cccc4ccccc24)C3)CC1CC#N` (stereo partly drawn) [Compound 1, 2-(1-acryloyl-4-(2-(((1r,4r)-4-(dimethylamino)cyclohexyl)oxy)-7-(naphthalen-1-yl)-5,6,7,8-tetrahydropyrido[3,4-d]pyrimidin-4-yl)piperazin-2-yl)acetonitrile], in assay [1], the IC50 came out at 3200 nM.
The molecule `C=CC(=O)N1CCN(c2nc(OCC3(N4CCCC4)CC3)nc3c2CCN(c2cccc4ccccc24)C3)CC1CC#N` (stereo not drawn) [Compound 32, 2-(1-acryloyl-4-(7-(naphthalen-1-yl)-2-((1-(pyrrolidin-1-yl)cyclopropyl)methoxy)-5,6,7,8-tetrahydropyrido[3,4-d]pyrimidin-4-yl)piperazin-2-yl)acetonitrile] yielded an IC50 in assay [2] of 696 nM.
Regarding `C=CC(=O)N1CCN(c2nc(OCC3CCC(N(C)C)C3)nc3c2CCN(c2cccc(F)c2Cl)C3)CC1CC#N` (stereo not drawn) [Compound 29, 2-(1-acryloyl-4-(7-(2-chloro-3-fluorophenyl)-2-((3-(dimethylamino)cyclopentyl)methoxy)-5,6,7,8-tetrahydropyrido[3,4-d]pyrimidin-4-yl)piperazin-2-yl)acetonitrile], in assay [1], the IC50 was greater than 1000 nM.
In the case of `C=CC(=O)N1CCN(c2nc(OCC3(CN(C)C)CC3)nc3c2CCN(c2cccc4c2OCC4)C3)CC1CC#N` (stereo not drawn) [Compound 53, 2-(1-acryloyl-4-(7-(2,3-dihydrobenzofuran-7-yl)-2-((1-((dimethylamino)methyl)cyclopropyl)methoxy)-5,6,7,8-tetrahydropyrido[3,4-d]pyrimidin-4-yl)piperazin-2-yl)acetonitrile], the IC50 on KRAS G12C was 174 nM; in assay [1], greater than 500 nM.
In the case of `C=CC(=O)N1CCN(c2nc(O[C@H]3CCCC[C@@H]3N(C)C)nc3c2CCN(c2cccc4ccccc24)C3)CC1CC#N` (stereo partly drawn) [Compound 60, 2-(1-acryloyl-4-(2-(((1S,2S)-2-(dimethylamino)cyclohexyl)oxy)-7-(naphthalen-1-yl)-5,6,7,8-tetrahydropyrido[3,4-d]pyrimidin-4-yl)piperazin-2-yl)acetonitrile], in assay [1], the IC50 was 7120 nM.
In the case of `C=CC(=O)N1CCN(c2nc(OCC3CC3CN(C)C)nc3c2CCN(c2cccc4ccccc24)C3)CC1CC#N` (stereo not drawn) [Compound 19, 2-(1-acryloyl-4-(2-((2-((dimethylamino)methyl)cyclopropyl)methoxy)-7-(naphthalen-1-yl)-5,6,7,8-tetrahydropyrido[3,4-d]pyrimidin-4-yl)piperazin-2-yl)acetonitrile], the IC50 was 372 nM at KRAS G12C and 748 nM in assay [1].
In the case of `C=CC(=O)N1CCN(c2nc(OCC3(CN(C)C)CC3)nc3c2CCN(c2cccc4ccn(C)c(=O)c24)C3)CC1CC#N` (stereo not drawn) [Compound 2, 2-(1-acryloyl-4-(2-((1-((dimethylamino)methyl)cyclopropyl)methoxy)-7-(2-methyl-1-oxo-1,2-dihydroisoquinolin-8-yl)-5,6,7,8-tetrahydropyrido[3,4-d]pyrimidin-4-yl)piperazin-2-yl)acetonitrile], the IC50 on KRAS G12C was greater than 500 nM.
With `C=CC(=O)N1CCN(c2nc(OC3CCCCC3N(C)C)nc3c2CCN(c2cccc4ccccc24)C3)CC1CC#N` (stereo not drawn) [Compound 11, 2-(1-acryloyl-4-(2-((2-(dimethylamino)cyclohexyl)oxy)-7-(naphthalen-1-yl)-5,6,7,8-tetrahydropyrido[3,4-d]pyrimidin-4-yl)piperazin-2-yl)acetonitrile], the IC50 in assay [1] stood at 9860 nM.
Consider `C=CC(=O)N1CCN(c2nc(OCC3(CN(C)C)CC3)nc3c2CCN(c2cccc4scnc24)C3)CC1CC#N` (stereo not drawn) [Compound 52, 2-(1-acryloyl-4-(7-(benzo[d]thiazol-4-yl)-2-((1-((dimethylamino)methyl)cyclopropyl)methoxy)-5,6,7,8-tetrahydropyrido[3,4-d]pyrimidin-4-yl)piperazin-2-yl)acetonitrile], for which the values for the IC50 (on KRAS G12C; in assay [1]) were 485 nM and greater than 500 nM, respectively.

The record behind these values is US20210040089A1, “KRAS MUTANT PROTEIN INHIBITORS” (Jacobio Pharmaceuticals Co., Ltd., priority 2019, published 2021).
